Consider eight compounds from ChEMBL document CHEMBL4251642 (Eur J Med Chem, 2018).

The source made the active and inactive calls. The rule behind the calls is not given here.

For data set [1], the system named is Influenza A virus. Nature of the data set: Antiviral activity against Influenza A virus (A/WSN/1933(H1N1)) infected in BALB/c mouse assessed as mouse survival at 0.96 umol/day, po for 5 consecutive days measured on day 14 post dose. It counts as functional.
In data set [2] the test system is Influenza A virus. Nature of the data set: Antiviral activity against Influenza A virus (A/WSN/1933(H1N1)) infected in MDCK cells assessed as inhibition of virus-induced cytopathic effect after 48 hrs by CellTiter96 Aqueous non-radioactive cell proliferation assay. The data set is classed as functional, organism-based. For orientation: Damage to the host cells serves as the signal in cytopathic effect assays.

Data set [3] can be described thus: Cytotoxicity against MDCK cells after 48 hrs by CellTiter96 Aqueous non-radioactive cell proliferation assay. Particulars: dog. The data set is classed as cell-based, Canis lupus familiaris.
Data set [4] deals with Neuraminidase (Influenza A virus (strain A/Wilson-Smith/1933 H1N1) (Influenza A virus(strain A/WS/1933 H1N1)), UniProt P03470).
Neuraminidase (Influenza A virus (strain A/Wilson-Smith/1933 H1N1) (Influenza A virus(strain A/WS/1933 H1N1)), UniProt P03470), sequence (P03470 whole entry): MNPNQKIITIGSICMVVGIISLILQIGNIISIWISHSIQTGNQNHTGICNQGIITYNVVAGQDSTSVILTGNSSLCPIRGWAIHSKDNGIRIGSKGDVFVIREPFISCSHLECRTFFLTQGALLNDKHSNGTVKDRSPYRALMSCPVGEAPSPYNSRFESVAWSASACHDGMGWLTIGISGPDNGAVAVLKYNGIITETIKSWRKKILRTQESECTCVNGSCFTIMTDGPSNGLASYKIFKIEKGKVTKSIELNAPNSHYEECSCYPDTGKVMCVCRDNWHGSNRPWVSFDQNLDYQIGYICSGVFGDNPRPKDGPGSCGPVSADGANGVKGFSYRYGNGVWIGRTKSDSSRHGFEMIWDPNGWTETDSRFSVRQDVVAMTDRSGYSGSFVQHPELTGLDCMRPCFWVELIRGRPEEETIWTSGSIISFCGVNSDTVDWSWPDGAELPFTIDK
The nature of data set [5]: Drug level in rabbit serum treated with (1S,2S,3R,4R)-3-[(S)-1-Acetamido-2-ethylbutyl]-2-[[3-((E)-3-(3,4-dihydroxyphenyl)acryloyloxy)propyl]carbamoyloxy]-4-guanidinocyclopentane-1-carboxylic acid at 37 degC after 24 hrs by HPLC-ESI-MS analysis. It counts as ADME, cell-free, Oryctolagus cuniculus.
In data set [6] the target is Neuraminidase (Influenza A virus (strain A/Wilson-Smith/1933 H1N1) (Influenza A virus(strain A/WS/1933 H1N1)), UniProt P03470). The source holds these as a separate data set.
Data set [7] has as its target Neuraminidase (Influenza A virus (A/Memphis/1/1971(H3N2)), UniProt P03471). The data set is classed as cell-based, Influenza A virus (A/Brisbane/10/2007(H3N2)), HEK293.
Data set [8] is described as follows: Drug metabolism in rabbit serum assessed as (1S,2S,3R,4R)-3-[(S)-1-acetamido-2-ethylbutyl]-4-guanidino-2-[(3-hydroxypropyl)carbamoyloxy]cyclopentane-1-carboxylic acid formation at 37 degC after 24 hrs by HPLC-ESI-MS analysis. It counts as ADME, cell-free, Oryctolagus cuniculus.
The nature of data set [9]: Stability in rabbit serum at 37 degC after 24 hrs by HPLC-ESI-MS analysis. It counts as ADME, cell-free, Oryctolagus cuniculus.
Data set [10] can be described thus: Drug metabolism in rabbit serum assessed as 3-[(1S,2R,3R,5S)-2-[(S)-1-acetamido-2-ethylbutyl]-5-carboxy-3-guanidinocyclopentoxycarbonyl]aminopropan-1-aminium trifluoroacetate formation at 37 degC after 24 hrs by HPLC-ESI-MS analysis. It counts as ADME, cell-free, Oryctolagus cuniculus.
The subject of data set [11] is Influenza A virus. Nature of the data set: Antiviral activity against Influenza A virus (A/WSN/1933(H1N1)) infected in BALB/c mouse assessed as mouse survival at 0.72 umol/day, po for 5 consecutive days measured on day 14 post dose. The data set is classed as functional, organism-based.

Neuraminidase (Influenza A virus (A/Memphis/1/1971(H3N2)), UniProt P03471), sequence (P03471 whole entry): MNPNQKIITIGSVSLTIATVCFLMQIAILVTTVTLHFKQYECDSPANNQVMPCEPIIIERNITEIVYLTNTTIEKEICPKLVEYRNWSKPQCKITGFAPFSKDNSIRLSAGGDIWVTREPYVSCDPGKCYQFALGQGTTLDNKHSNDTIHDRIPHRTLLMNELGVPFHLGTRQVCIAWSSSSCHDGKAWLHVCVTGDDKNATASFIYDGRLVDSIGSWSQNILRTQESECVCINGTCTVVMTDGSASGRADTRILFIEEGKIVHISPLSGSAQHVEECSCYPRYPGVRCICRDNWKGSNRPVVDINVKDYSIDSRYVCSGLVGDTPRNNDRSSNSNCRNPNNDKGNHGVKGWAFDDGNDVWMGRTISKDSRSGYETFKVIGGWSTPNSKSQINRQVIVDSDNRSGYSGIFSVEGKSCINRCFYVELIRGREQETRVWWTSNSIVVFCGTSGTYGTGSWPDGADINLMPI

Take `CCOC(=O)C1=C[C@@H](OC(CC)CC)[C@H](NC(C)=O)[C@@H](N)C1` [OSELTAMIVIR]: the result in the data set with Influenza A virus [1] was Active.

In general, EC50 refers to the concentration giving half of the maximal effect. In general, CC50 refers to the concentration that lowers cell viability or growth by half. What is called IC50 is the concentration that inhibits the measured activity by half. High values mean lower potency, low ones higher potency. Regarding `CCC(CC)[C@H](NC(C)=O)[C@@H]1[C@H](OC(=O)NCCCN)[C@@H](C(=O)O)C[C@H]1NC(=N)N`, the EC50 with Influenza A virus [2] amounted to 2.58 nM. Besides, the half-maximal cytotoxic concentration (CC50) at 48 h in data set [3] was > 100000 nM. The IC50 in [4] was 0.94 nM.

As to `CCC(CC)OC1C=C(C(=O)O)C[C@H](N)[C@H]1NC(C)=O` (some centres undefined), the EC50 with Influenza A virus [2] came to 16.6 nM. Besides, in data set [3], the cytotoxic concentration (CC50) at 48 h is > 100000 nM.

As for `CCC(CC)[C@H](NC(C)=O)[C@@H]1[C@H](OC(=O)NCCCO)[C@@H](C(=O)O)C[C@H]1NC(=N)N`, the Drug uptake in [5] is given as 26%. In addition, in the data set with Influenza A virus [2], the EC50 turned out to be 2.22 nM. Also, the CC50 at 48 h in [3] is > 100000 nM. The compound also returned a half-maximal inhibitory concentration (IC50) in data set [4] of 0.64 nM.

On to `CCC(CC)[C@H](NC(C)=O)[C@@H]1[C@H](OC(=O)NCCCOCCCc2ccc(O)c(O)c2)[C@@H](C(=O)O)C[C@H]1NC(=N)N`, for which the Survival in the data set on Influenza A virus [1] was found to be 50%. Besides, the EC50 with Influenza A virus [2] was found to be 3.5 nM. Moreover, the 50% cytotoxic concentration (CC50) at 48 h in data set [3] is > 100000 nM. This compound came in with an IC50 in data set [4] of 0.67 nM.

For `CCC(CC)[C@H](NC(C)=O)[C@@H]1[C@H](O)[C@@H](C(=O)O)C[C@H]1NC(=N)N` [PERAMIVIR ANHYDROUS], the EC50 with Influenza A virus [2] turned out to be 6.68 nM. The 50% inhibitory concentration (IC50) was 0.4 nM in [6], 2 nM in data set [7] and 0.48 nM in data set [4]. For the same compound, the cytotoxic concentration (CC50) at 48 h in data set [3] is > 100000 nM.

For `CCC(CC)[C@H](NC(C)=O)[C@@H]1[C@H](OC(=O)NCCCNC(=O)/C=C/c2ccc(O)c(O)c2)[C@@H](C(=O)O)C[C@H]1NC(=N)N`, the Drug metabolism result in data set [8] is “Metabolite_Detected”; in data set [10] it was “Metabolite_Notdetected”. The Stability entry in data set [9] is recorded as “Stable”. Moreover, in the data set with Influenza A virus [1], the Survival was determined as 100%. The half-maximal effective concentration (EC50) in the data set with Influenza A virus [2] was determined as 1.56 nM. Moreover, the IC50 in data set [6] amounted to 1.8 nM; in data set [4], 0.44 nM. Moreover, the CC50 at 48 h in [3] is > 100000 nM. Moreover, in the data set with Influenza A virus [11], the outcome was Active.

With `CCC(CC)[C@H](NC(C)=O)[C@@H]1[C@H](OC(=O)NCCCOC(=O)/C=C/c2ccc(O)c(O)c2)[C@@H](C(=O)O)C[C@H]1NC(=N)N`, the concentration giving a half-maximal response (EC50) in the data set with Influenza A virus [2] came out at 1.68 nM. Moreover, the IC50 came out at 0.9 nM in data set [6], 27.2 nM in data set [7] and 1.05 nM in data set [4]. Also, in data set [3], the CC50 at 48 h was > 100000 nM. For the same compound, in the data set on Influenza A virus [11], the outcome was Active.
